Columns and labels:
[1] = Pharmacokinetics in Wistar rats; type: in vivo, Wistar rat
Procedure: Five Wistar rats were injected intravenously (IV) with BK124.1 at 5 mg/kg or 10 mg/kg concentration, in 10% Solutol HS15/10% ethanol. The blood was taken from each animal after 5, 15, and 30 min, 1, 2, 6, and 24 h post-injection. Blood BK124.1 concentration was measured using mass spectrometry.

[2] = Pharmacokinetics in Balb/c nude mice; type: in vivo; settings: for MRT last / half-life / AUC(0-inf) / C0: Balb/c nude; for AUC(0-inf): extrapolated to infinity; for C0: extrapolated to t = 0
Procedure: Eight-week-old female Balb/c nude mice were randomly divided into test groups and injected with BK124.1 either intraperitoneally, at 20 mg/kg or 40 mg/kg concentrations, or intravenously at 20 mg/kg concentration. The compound blood concentration was measured 15 min, 6, 12, and 24 h post-injection. For each time point, 4 mice were sacrificed. BK124.1 concentration in the bloodstream was analyzed using mass spectrometry. Toxicology was assessed by examining physiological and morphological changes at the injection site, the appearance of internal organs (liver, heart, kidneys, and spleen), blood tests, body mass, and animal behavior.

[3] = tested on: CD34+ cells from CML patients; assay: Annexin V apoptosis assay, CML CD34+ cells; type: cell-based; settings: Homo sapiens, 24 h
Procedure: Blood samples were taken (venipuncture, EDTA-K2 Vacutainer tubes, Becton Dickinson, Franklin Lakes, NJ, USA) from 8 chronic phase CML patients (CML1–CML8; 4 men and 4 women, aged 39–79) diagnosed at the Department of Hematology, University Clinical Center, Medical University of Warsaw, following their written consent. The diagnosis was carried out by qualified clinical staff based on an interview, blood parameters and molecular tests detecting BCR-ABL1 (transcript b3a2). Peripheral blood mononuclear cells were immediately isolated from the fresh blood sample using standard protocol (Supplementary Methods). […]
Cells were seeded in 6-well plates (K562 or K562-MDR1) or in 24-well plates (CD34^+ cells). […] After a further 24 h, cells were stained using the Annexin V-FITC kit for the detection of apoptosis (BD, Franklin Lakes, NJ, USA) and immediately analyzed on a BD FACSCalibur using CellQuest software (BD, Franklin Lakes, NJ, USA). […]
incubated overnight at 37 °C and analyzed using an iMark Microp late absorbance reader (Bio-Rad, Hercules, CA, USA). Results were calculated relative to control cells treated with DMSO only.
[…] Stained cells were immediately analyzed on a BD FACSCalibur using CellQuest softwa re (BD, Franklin Lakes, NJ, USA). […]

[4] = IP 20 mg/kg, whole blood, female mouse
[5] = IP 40 mg/kg, whole blood, female mouse
[6] = IV 20 mg/kg, whole blood, female mouse

For `CCC12C(=O)C(CC)(C(c3ccccc3)=C1c1ccccc1)C1C(=O)N(CC(O)CNC(C)C)C(=O)C12` (stereo not shown) [BK124.1, 4-[2-hydroxy-3-(propan-2-ylamino)propyl]-1,7-diethyl-8,9-diphenyl-4-azatricyclo [5.2.1.02,6]dec-8-ene-3,5,10-trione], the “Time BK124.1 remains detectable in the peripheral blood” value ([1]; IV 10 mg/kg (Figure 1A)) was 24 h, the half-life ([1]; Wistar, rat, IV 10 mg/kg, blood) was 4.39 h and the MRT last [2, 4] was 5.09 h. The half-life [2, 4] was 3.53 h, the AUC(0-inf) [2, 4] was 9580 ng·h/mL and the C0 [2, 4] was 1740 ng/mL. The MRT last [2, 5] was 7.48 h, the half-life [2, 5] was 5.18 h and the AUC(0-inf) [2, 5] was 23500 ng·h/mL. The C0 [2, 5] was 2760 ng/mL, the MRT last [2, 6] was 4.78 h and the half-life [2, 6] was 3.31 h. The AUC(0-inf) [2, 6] was 6620 ng·h/mL, the C0 [2, 6] was 1020 ng/mL and the “AUClast, dose normalized” value [2, 4] was 3.24 kg·ng·h/mL/mg. For the same molecule, the “AUC∞, dose normalized” value [2, 4] was 479 kg·ng·h/mL/mg, the “AUClast, dose normalized” value [2, 5] was 16.18 kg·ng·h/mL/mg and the “AUC∞, dose normalized” value [2, 5] was 587 kg·ng·h/mL/mg. For the same molecule, the “AUClast, dose normalized” value [2, 6] was 2.50 kg·ng·h/mL/mg, the “AUC∞, dose normalized” value [2, 6] was 331 kg·ng·h/mL/mg and the half-life ([2]; female, mouse, IP 20 mg/kg, blood) was 3.53 h. It also gave a half-life ([2]; female, mouse, IP 40 mg/kg, blood) of 5.18 h, a half-life ([2]; female, mouse, IV 20 mg/kg, blood) of 3.31 h and a viability at […] ([3]; 2.5 µM) of 10%. The viability at 5 µM ([3]; 5 µM) was 5%.

— article PMC9332833 (Cancers, 2022)
